Results on 1 compound are retold here after PMC7595966, “Scutellarin is Highly Likely to be Responsible for Drug-Drug Interactions Mediated by Hepatic Organic Anion-Transporting Polypeptide1B3” (Pharmaceutical Research, 2020).

One test has as its target T1, rOATP1B2 (Rattus norvegicus, UniProt Q9QZX8).
T1 construct: gene Slco1b2
T1 sequence (Q9QZX8 1-687): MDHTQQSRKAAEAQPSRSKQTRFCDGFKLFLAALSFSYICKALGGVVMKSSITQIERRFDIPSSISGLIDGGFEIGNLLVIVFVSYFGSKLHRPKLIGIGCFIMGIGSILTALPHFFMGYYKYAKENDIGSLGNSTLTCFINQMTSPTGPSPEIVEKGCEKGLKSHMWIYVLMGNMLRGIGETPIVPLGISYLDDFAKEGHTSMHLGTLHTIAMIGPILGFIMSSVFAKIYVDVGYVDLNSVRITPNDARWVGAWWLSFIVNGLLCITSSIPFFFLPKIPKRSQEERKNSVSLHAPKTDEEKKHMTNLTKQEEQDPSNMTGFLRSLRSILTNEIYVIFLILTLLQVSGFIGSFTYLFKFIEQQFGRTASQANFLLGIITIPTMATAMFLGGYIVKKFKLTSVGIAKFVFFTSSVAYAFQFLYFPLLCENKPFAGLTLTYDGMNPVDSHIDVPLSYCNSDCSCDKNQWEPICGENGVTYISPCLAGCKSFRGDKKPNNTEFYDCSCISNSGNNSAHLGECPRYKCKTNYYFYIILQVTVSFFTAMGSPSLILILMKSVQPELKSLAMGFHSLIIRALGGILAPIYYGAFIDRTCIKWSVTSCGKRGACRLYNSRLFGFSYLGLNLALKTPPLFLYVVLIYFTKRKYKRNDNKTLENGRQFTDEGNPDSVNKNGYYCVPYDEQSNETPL
The test can be described thus: cell-based.

Another test deals with T2, hOATP1B3 (Homo sapiens, UniProt Q9NPD5).
T2 construct: gene SLCO1B3
T2 sequence (Q9NPD5 1-702): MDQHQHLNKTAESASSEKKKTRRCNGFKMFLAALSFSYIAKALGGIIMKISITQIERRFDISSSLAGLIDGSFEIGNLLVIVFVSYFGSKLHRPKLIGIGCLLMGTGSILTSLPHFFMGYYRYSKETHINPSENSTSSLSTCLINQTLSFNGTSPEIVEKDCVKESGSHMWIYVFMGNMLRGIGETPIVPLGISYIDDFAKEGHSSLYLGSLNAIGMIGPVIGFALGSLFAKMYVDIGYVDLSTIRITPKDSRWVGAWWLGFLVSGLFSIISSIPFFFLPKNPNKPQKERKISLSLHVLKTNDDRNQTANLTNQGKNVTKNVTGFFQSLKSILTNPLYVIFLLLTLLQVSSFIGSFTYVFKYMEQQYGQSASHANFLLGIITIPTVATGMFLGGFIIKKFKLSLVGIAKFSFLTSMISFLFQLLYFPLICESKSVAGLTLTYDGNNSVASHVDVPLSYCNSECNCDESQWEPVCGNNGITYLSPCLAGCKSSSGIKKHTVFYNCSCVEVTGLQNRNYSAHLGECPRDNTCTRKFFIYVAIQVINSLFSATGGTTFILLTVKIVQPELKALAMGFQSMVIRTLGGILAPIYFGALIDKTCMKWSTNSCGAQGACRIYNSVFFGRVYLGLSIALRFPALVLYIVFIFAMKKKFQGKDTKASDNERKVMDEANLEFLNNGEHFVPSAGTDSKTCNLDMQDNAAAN
The test can be described thus: cell-based.

A word on the IC50: it is the concentration needed to halve the response being measured. A high value points to lower potency. Turning to `O=C(O)[C@H]1O[C@@H](Oc2cc3oc(-c4ccc(O)cc4)cc(=O)c3c(O)c2O)[C@H](O)[C@@H](O)[C@@H]1O` [Scutellarin], the IC50 against rOATP1B2 came to 27.6 ± 3.97 µM; against hOATP1B3, 45.5 ± 6.67 µM.
